Assay in all cases: relative viability (nuclei count vs DMSO), 5 days (fraction); higher = more cells survive
Compound in the experiment “Erlotinib + Tozasertib”: C#Cc1cccc(Nc2ncnc3cc(OCCOC)c(OCCOC)cc23)c1 [Erlotinib] + Cc1cc(Nc2cc(N3CCN(C)CC3)nc(Sc3ccc(NC(=O)C4CC4)cc3)n2)n[nH]1 [Tozasertib] (partner 0.1 µM)
In a few lines:
(§1)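 Lung cancer cell lines were seeded in 1536-well plates and dosed by pin tool the next day, with either a single drug or a fixed anchor-drug dose combined with five library-drug doses (not always all listed) spaced in √10 steps. Five days later, one step fixed the cells and stained their nuclei (final 0.05% Triton X-100, 1% formaldehyde, 1 ug/ml Hoechst), and nuclei were counted on 4× images. Relative viability is the nuclei count in treated wells divided by the count in vehicle wells, and each value is the median of duplicate plates.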

Compound in the experiment “AT9283 + Olaparib”: O=C(Nc1c[nH]nc1-c1nc2ccc(CN3CCOCC3)cc2[nH]1)NC1CC1 [AT9283] + O=C(c1cc(Cc2n[nH]c(=O)c3ccccc23)ccc1F)N1CCN(C(=O)C2CC2)CC1 [Olaparib] (partner 8 µM)
Summed up:
as §1

Compound in the experiment “Erlotinib + Palbociclib”: C#Cc1cccc(Nc2ncnc3cc(OCCOC)c(OCCOC)cc23)c1 [Erlotinib] + CC(=O)c1c(C)c2cnc(Nc3ccc(N4CCNCC4)cn3)nc2n(C2CCCC2)c1=O [Palbociclib] (partner 0.5 µM)
Summed up:
as §1

Compound in the experiment “AT9283 + Crizotinib”: O=C(Nc1c[nH]nc1-c1nc2ccc(CN3CCOCC3)cc2[nH]1)NC1CC1 [AT9283] + C[C@@H](Oc1cc(-c2cnn(C3CCNCC3)c2)cnc1N)c1c(Cl)ccc(F)c1Cl [Crizotinib] (partner 1 µM)
Summed up:
as §1

Compound in the experiment “AT9283 + Phenformin”: O=C(Nc1c[nH]nc1-c1nc2ccc(CN3CCOCC3)cc2[nH]1)NC1CC1 [AT9283] + N=C(N)NC(=N)NCCc1ccccc1 [Phenformin] (partner 250 µM)
Summed up:
as §1

For UMC-11, the relative viability with Erlotinib + Tozasertib (first compound 0.02 µM) stood at 0.208; with Erlotinib + Tozasertib (first compound 0.2 µM) it was 0.189; in the experiment with Erlotinib + Tozasertib (first compound 0.6325 µM), 0.204; with Erlotinib + Tozasertib (first compound 2 µM), 0.198; in the experiment with AT9283 + Olaparib (first compound 0.003 µM), 0.712; in the experiment with AT9283 + Olaparib (first compound 0.03 µM) it was 0.218. Besides, the relative viability came to 0.213 in the experiment with AT9283 + Olaparib (first compound 0.09487 µM); 0.23 in the experiment with AT9283 + Olaparib (first compound 0.3 µM); 0.364 with Erlotinib + Palbociclib (first compound 0.02 µM); 0.328 with Erlotinib + Palbociclib (first compound 0.2 µM); 0.345 with Erlotinib + Palbociclib (first compound 0.6325 µM); 0.382 in the experiment with Erlotinib + Palbociclib (first compound 2 µM). Moreover, the relative viability with AT9283 + Crizotinib (first compound 0.003 µM) is 0.58; in the experiment with AT9283 + Crizotinib (first compound 0.03 µM), 0.075; with AT9283 + Crizotinib (first compound 0.09487 µM), 0.0835; in the experiment with AT9283 + Crizotinib (first compound 0.3 µM), 0.132; in the experiment with AT9283 + Phenformin (first compound 0.003 µM) it was 0.308; in the experiment with AT9283 + Phenformin (first compound 0.03 µM), 0.184. For the same cell line, the relative viability with AT9283 + Phenformin (first compound 0.09487 µM) was 0.178; in the experiment with AT9283 + Phenformin (first compound 0.3 µM), 0.171.

For LCLC-97TM1, the relative viability in the experiment with Erlotinib + Tozasertib (first compound 0.02 µM) was determined as 0.285; with Erlotinib + Tozasertib (first compound 0.2 µM), 0.204; with Erlotinib + Tozasertib (first compound 0.6325 µM), 0.203; with Erlotinib + Tozasertib (first compound 2 µM) it was 0.172; in the experiment with AT9283 + Olaparib (first compound 0.003 µM), 0.41; with AT9283 + Olaparib (first compound 0.03 µM) it was 0.233. For the same cell line, the relative viability stood at 0.103 with AT9283 + Olaparib (first compound 0.09487 µM); 0.0959 with AT9283 + Olaparib (first compound 0.3 µM); 0.234 with Erlotinib + Palbociclib (first compound 0.02 µM); 0.243 with Erlotinib + Palbociclib (first compound 0.2 µM); 0.256 in the experiment with Erlotinib + Palbociclib (first compound 0.6325 µM); 0.194 with Erlotinib + Palbociclib (first compound 2 µM). Besides, the relative viability came to 0.273 in the experiment with AT9283 + Crizotinib (first compound 0.003 µM); 0.157 in the experiment with AT9283 + Crizotinib (first compound 0.03 µM); 0.128 with AT9283 + Crizotinib (first compound 0.09487 µM); 0.121 in the experiment with AT9283 + Crizotinib (first compound 0.3 µM); 0.445 with AT9283 + Phenformin (first compound 0.003 µM); 0.282 with AT9283 + Phenformin (first compound 0.03 µM). Moreover, the relative viability with AT9283 + Phenformin (first compound 0.09487 µM) came to 0.152; with AT9283 + Phenformin (first compound 0.3 µM), 0.137.

For the cell line HOP-62, the relative viability with Erlotinib + Tozasertib (first compound 0.02 µM) amounted to 0.405; with Erlotinib + Tozasertib (first compound 0.2 µM), 0.409; in the experiment with Erlotinib + Tozasertib (first compound 0.6325 µM), 0.411; with Erlotinib + Tozasertib (first compound 2 µM), 0.26; with AT9283 + Olaparib (first compound 0.003 µM), 0.514; with AT9283 + Olaparib (first compound 0.03 µM) it was 0.308. Also, the relative viability with AT9283 + Olaparib (first compound 0.09487 µM) was determined as 0.137; with AT9283 + Olaparib (first compound 0.3 µM), 0.201; with Erlotinib + Palbociclib (first compound 0.02 µM), 0.544; with Erlotinib + Palbociclib (first compound 0.2 µM), 0.517; in the experiment with Erlotinib + Palbociclib (first compound 0.6325 µM), 0.453; in the experiment with Erlotinib + Palbociclib (first compound 2 µM) it was 0.41. Moreover, the relative viability with AT9283 + Crizotinib (first compound 0.003 µM) was determined as 1.13; in the experiment with AT9283 + Crizotinib (first compound 0.03 µM) it was 0.747; with AT9283 + Crizotinib (first compound 0.09487 µM) it was 0.285; in the experiment with AT9283 + Crizotinib (first compound 0.3 µM), 0.167; with AT9283 + Phenformin (first compound 0.003 µM) it was 0.694; with AT9283 + Phenformin (first compound 0.03 µM) it was 0.572. The relative viability in the experiment with AT9283 + Phenformin (first compound 0.09487 µM) was found to be 0.418; in the experiment with AT9283 + Phenformin (first compound 0.3 µM) it was 0.25.

With NCI-H1703, the relative viability turned out to be 0.383 with AT9283 + Olaparib (first compound 0.003 µM); 0.155 with AT9283 + Olaparib (first compound 0.03 µM); 0.169 with AT9283 + Olaparib (first compound 0.09487 µM); 0.229 in the experiment with AT9283 + Olaparib (first compound 0.3 µM); 0.694 with AT9283 + Crizotinib (first compound 0.003 µM); 0.401 with AT9283 + Crizotinib (first compound 0.03 µM). The relative viability with AT9283 + Crizotinib (first compound 0.09487 µM) was found to be 0.211; in the experiment with AT9283 + Crizotinib (first compound 0.3 µM), 0.225.

As for NCI-H520, the relative viability with Erlotinib + Tozasertib (first compound 0.02 µM) was 0.427; with Erlotinib + Tozasertib (first compound 0.2 µM), 0.471; with Erlotinib + Tozasertib (first compound 0.6325 µM) it was 0.466; with Erlotinib + Tozasertib (first compound 2 µM), 0.432; with AT9283 + Olaparib (first compound 0.003 µM), 0.32; with AT9283 + Olaparib (first compound 0.03 µM), 0.205. Besides, the relative viability with AT9283 + Olaparib (first compound 0.09487 µM) amounted to 0.223; in the experiment with AT9283 + Olaparib (first compound 0.3 µM), 0.22; in the experiment with Erlotinib + Palbociclib (first compound 0.02 µM), 0.202; with Erlotinib + Palbociclib (first compound 0.2 µM) it was 0.223; with Erlotinib + Palbociclib (first compound 0.6325 µM), 0.272; with Erlotinib + Palbociclib (first compound 2 µM), 0.311. Moreover, the relative viability in the experiment with AT9283 + Crizotinib (first compound 0.003 µM) is 0.692; with AT9283 + Crizotinib (first compound 0.03 µM), 0.322; with AT9283 + Crizotinib (first compound 0.09487 µM), 0.285; with AT9283 + Crizotinib (first compound 0.3 µM), 0.182; with AT9283 + Phenformin (first compound 0.003 µM) it was 0.572; in the experiment with AT9283 + Phenformin (first compound 0.03 µM) it was 0.284. Moreover, the relative viability with AT9283 + Phenformin (first compound 0.09487 µM) amounted to 0.243; with AT9283 + Phenformin (first compound 0.3 µM) it was 0.174.

As for NCI-H2126, the relative viability with Erlotinib + Tozasertib (first compound 0.02 µM) turned out to be 0.841; in the experiment with Erlotinib + Tozasertib (first compound 0.2 µM), 0.691; with Erlotinib + Tozasertib (first compound 0.6325 µM), 0.674; with Erlotinib + Tozasertib (first compound 2 µM), 0.481; in the experiment with AT9283 + Olaparib (first compound 0.003 µM), 0.978; with AT9283 + Olaparib (first compound 0.03 µM), 0.938. Besides, the relative viability with AT9283 + Olaparib (first compound 0.09487 µM) came to 0.698; with AT9283 + Olaparib (first compound 0.3 µM), 0.364; with Erlotinib + Palbociclib (first compound 0.02 µM), 0.381; with Erlotinib + Palbociclib (first compound 0.2 µM), 0.364; in the experiment with Erlotinib + Palbociclib (first compound 0.6325 µM) it was 0.349; with Erlotinib + Palbociclib (first compound 2 µM), 0.367. Also, the relative viability in the experiment with AT9283 + Crizotinib (first compound 0.003 µM) came to 0.943; in the experiment with AT9283 + Crizotinib (first compound 0.03 µM), 1.02; with AT9283 + Crizotinib (first compound 0.09487 µM), 0.69; in the experiment with AT9283 + Crizotinib (first compound 0.3 µM), 0.465; in the experiment with AT9283 + Phenformin (first compound 0.003 µM), 0.511; in the experiment with AT9283 + Phenformin (first compound 0.03 µM), 0.575. For the same cell line, the results for the relative viability with AT9283 + Phenformin (first compound 0.09487 µM) and with AT9283 + Phenformin (first compound 0.3 µM) were 0.365 and 0.264, respectively.

For NCI-H2087, the relative viability came to 0.259 with Erlotinib + Tozasertib (first compound 0.02 µM); 0.279 with Erlotinib + Tozasertib (first compound 0.2 µM); 0.191 in the experiment with Erlotinib + Tozasertib (first compound 0.6325 µM); 0.132 in the experiment with Erlotinib + Tozasertib (first compound 2 µM); 0.71 with AT9283 + Olaparib (first compound 0.003 µM); 0.416 with AT9283 + Olaparib (first compound 0.03 µM). The relative viability with AT9283 + Olaparib (first compound 0.09487 µM) turned out to be 0.194; in the experiment with AT9283 + Olaparib (first compound 0.3 µM), 0.154; in the experiment with Erlotinib + Palbociclib (first compound 0.02 µM), 0.238; in the experiment with Erlotinib + Palbociclib (first compound 0.2 µM), 0.246; with Erlotinib + Palbociclib (first compound 0.6325 µM) it was 0.212; in the experiment with Erlotinib + Palbociclib (first compound 2 µM), 0.226. In addition, the relative viability in the experiment with AT9283 + Crizotinib (first compound 0.003 µM) stood at 0.795; with AT9283 + Crizotinib (first compound 0.03 µM) it was 0.554; with AT9283 + Crizotinib (first compound 0.09487 µM), 0.401; with AT9283 + Crizotinib (first compound 0.3 µM), 0.326; with AT9283 + Phenformin (first compound 0.003 µM) it was 0.458; with AT9283 + Phenformin (first compound 0.03 µM), 0.251. The relative viability amounted to 0.111 in the experiment with AT9283 + Phenformin (first compound 0.09487 µM) and 0.118 with AT9283 + Phenformin (first compound 0.3 µM).

On to NCI-H1355, for which the relative viability in the experiment with Erlotinib + Tozasertib (first compound 0.02 µM) is 0.567; with Erlotinib + Tozasertib (first compound 0.2 µM) it was 0.538; with Erlotinib + Tozasertib (first compound 0.6325 µM) it was 0.4; in the experiment with Erlotinib + Tozasertib (first compound 2 µM) it was 0.266; in the experiment with AT9283 + Olaparib (first compound 0.003 µM) it was 0.803; with AT9283 + Olaparib (first compound 0.03 µM) it was 0.708. Besides, the relative viability in the experiment with AT9283 + Olaparib (first compound 0.09487 µM) stood at 0.329; with AT9283 + Olaparib (first compound 0.3 µM) it was 0.246; in the experiment with Erlotinib + Palbociclib (first compound 0.02 µM) it was 0.387; with Erlotinib + Palbociclib (first compound 0.2 µM) it was 0.344; with Erlotinib + Palbociclib (first compound 0.6325 µM), 0.325; with Erlotinib + Palbociclib (first compound 2 µM) it was 0.269. Besides, the relative viability with AT9283 + Crizotinib (first compound 0.003 µM) is 1.03; with AT9283 + Crizotinib (first compound 0.03 µM), 0.992; with AT9283 + Crizotinib (first compound 0.09487 µM), 0.529; with AT9283 + Crizotinib (first compound 0.3 µM) it was 0.199; with AT9283 + Phenformin (first compound 0.003 µM) it was 0.478; in the experiment with AT9283 + Phenformin (first compound 0.03 µM) it was 0.449. For the same cell line, the relative viability with AT9283 + Phenformin (first compound 0.09487 µM) is 0.362; in the experiment with AT9283 + Phenformin (first compound 0.3 µM), 0.238.
